In patent US5068247A, “2-aminopentanoic acid compounds and their use as immunosuppressants” (priority 1989, dated 1991):

How the values were obtained:
[1] = test system: allo-reactive cytotoxic T cells in spleen of EL4-immunized BALB/c mice; experiment: suppression of allo-reactive cytotoxic T cells induced by immunization of mouse with allogenic cells; assay type: in vivo
Protocol: Male 5- to 7-week-old BALB/c mice (H-2^d) were immunized with leukemia cell EL4 derived from C57BL/6 mice (H-2^b) (10^7 cells/mouse, intraperitoneal administration), and the test substance was administered intraperitoneally 5 times at the doses of 0.001 to 3 mg/kg/day or orally at the doses of 0.3 to 10 mg/kg/day from the day of immunization. Nine to ten days after immunization, the spleen was resected from the mice to prepare a single cell suspension and the suspension was used as effector cell suspension. The ^51 Cr-release assay was carried out in the same way as in Experiment Example 3, using EL4 cells as the target cells to measure the cytotoxic activity.
The activity of allo-reactive cytotoxic T cell is indicated by lytic unit (LU) per spleen. One lytic unit (LU) is defined as the number of effector cells required to cause 25% lysis of 5×10^3 target cells. At the same time, the body weight of mouse and number of spleen cells were also determined.

[2] = cytotoxicity to cultured tumor cell line MOLT4; assay type: cell-based, human; settings: human, molt4 cells, read-out: Suppression
Protocol: (§1) Cytotoxicity to various human tumor cell lines was examined as follows:
(§2) Cells of human cell lines, K562, MOLT4, U937 and HL60 were respectively suspended to the concentration of 4×10^5 cells/ml in the RPMI1640 culture medium supplemented with 20% FCS. Fifty μl of each suspension was added to each well of a 96-well microtest plate to which 50 μl of the test solution had been added. After culturing the suspension at 37° C. in an atmosphere of 5% carbon dioxide for 72 hours, the absorbancy at 570 nm was measured in the same way as with the colorimetry using MTT in Experiment Example 1, and the percent suppression was calculated by the following formula, which was used as an index of cytotoxicity.

MOLT4 = experiment: cytotoxicity to cultured tumor cell line MOLT4; assay type: cell-based, human
Protocol: as §1, §2

[3] = cytotoxicity to cultured tumor cell line U937; assay type: cell-based, human; settings: human, u937 cells; 0.1 μg/ml; read-out: Suppression
Protocol: as §1, §2

U937 = experiment: cytotoxicity to cultured tumor cell line U937; assay type: cell-based, human
Protocol: as §1, §2

[4] = cytotoxicity to cultured tumor cell line K562; settings: human, k562 cells, Suppression
Protocol: as §1, §2

K562 = experiment: cytotoxicity to cultured tumor cell line K562
Protocol: as §1, §2

[5] = cytotoxicity to cultured tumor cell line HL60; settings: human, hl60 cells, Suppression
Protocol: as §1, §2

[6] = 0.03 mg/kg/day ip × 5, Table 9C
[7] = 0.03 mg/kg/day po × 5, Table 9D
[8] = 0.03 mg/kg/day po × 10, Table 9E
[9] = 0.1 mg/kg/day po × 10, Table 9E
[10] = 0.3 mg/kg/day po × 10, Table 9E

Compound: CCCCCCCCCCCCC/C=C/C[C@@H](O)[C@H](O)[C@@](N)(CO)C(=O)O [Example 5]
- Number of spleen cells ([1]; 0.01 mg/kg/day po × 10, Table 9E): 1.4 ± 0.2 × 10^8
- Body weight 9 days after immunization [1, 6]: 24.0 ± 2.2 g
- Cytotoxic T cell activity [1, 6]: 352 ± 148 LU/spleen
- Cytotoxic T cell activity, suppression [1, 6]: 69.9%
- Number of spleen cells [1, 6]: 2.1 ± 0.5 × 10^8 cell
- Body weight 10 days after immunization [1, 7]: 25.0 ± 1.2 g
- Cytotoxic T cell activity [1, 7]: 684 ± 181 LU/spleen
- Cytotoxic T cell activity, suppression [1, 7]: 55.3%
- Number of spleen cells [1, 7]: 1.6 ± 0.3 × 10^8
- Body weight 10 days after immunization [1, 8]: 24.2 ± 1.3 g
- Cytotoxic T cell activity [1, 8]: 799 ± 304 LU/spleen
- Cytotoxic T cell activity, suppression [1, 8]: 71.3%
- Number of spleen cells [1, 8]: 1.5 ± 0.3 × 10^8
- Body weight 9 days after immunization ([1]; 0.1 mg/kg/day ip × 5, Table 9C): 25.4 ± 1.9 g
- Cytotoxic T cell activity ([1]; 0.1 mg/kg/day ip × 5, Table 9C): 158 ± 86 LU/spleen
- Cytotoxic T cell activity, suppression ([1]; 0.1 mg/kg/day ip × 5, Table 9C): 86.5%
- Number of spleen cells ([1]; 0.1 mg/kg/day ip × 5, Table 9C): 1.9 ± 0.3 × 10^8 cell
- Body weight 10 days after immunization ([1]; 0.1 mg/kg/day po × 5, Table 9D): 25.2 ± 0.4 g
- Cytotoxic T cell activity ([1]; 0.1 mg/kg/day po × 5, Table 9D): 638 ± 155 LU/spleen
- Cytotoxic T cell activity, suppression ([1]; 0.1 mg/kg/day po × 5, Table 9D): 58.3%
- Number of spleen cells ([1]; 0.1 mg/kg/day po × 5, Table 9D): 1.7 ± 0.4 × 10^8
- Body weight 10 days after immunization [1, 9]: 25.0 ± 0.7 g
- Cytotoxic T cell activity [1, 9]: 731 ± 318 LU/spleen
- Cytotoxic T cell activity, suppression [1, 9]: 73.8%
- Number of spleen cells [1, 9]: 1.4 ± 0.4 × 10^8
- Body weight 9 days after immunization ([1]; 0.3 mg/kg/day ip × 5, Table 9C): 26.0 ± 1.6 g
- Cytotoxic T cell activity ([1]; 0.3 mg/kg/day ip × 5, Table 9C): < 50 LU/spleen
- Cytotoxic T cell activity, suppression ([1]; 0.3 mg/kg/day ip × 5, Table 9C): > 95%
- Number of spleen cells ([1]; 0.3 mg/kg/day ip × 5, Table 9C): 1.9 ± 0.2 × 10^8 cell
- Body weight 10 days after immunization ([1]; 0.3 mg/kg/day po × 5, Table 9D): 25.4 ± 0.5 g
- Cytotoxic T cell activity ([1]; 0.3 mg/kg/day po × 5, Table 9D): 609 ± 197 LU/spleen
- Cytotoxic T cell activity, suppression ([1]; 0.3 mg/kg/day po × 5, Table 9D): 60.2%
- Number of spleen cells ([1]; 0.3 mg/kg/day po × 5, Table 9D): 1.6 ± 0.3 × 10^8
- Body weight 10 days after immunization [1, 10]: 24.2 ± 1.3 g
- Cytotoxic T cell activity [1, 10]: 651 ± 257 LU/spleen
- Cytotoxic T cell activity, suppression [1, 10]: 76.6%
- Number of spleen cells [1, 10]: 1.6 ± 0.3 × 10^8
- Body weight 10 days after immunization ([1]; 1 mg/kg/day po × 5, Table 9D): 25.0 ± 1.4 g
- Cytotoxic T cell activity ([1]; 1 mg/kg/day po × 5, Table 9D): 421 ± 12 LU/spleen
- Cytotoxic T cell activity, suppression ([1]; 1 mg/kg/day po × 5, Table 9D): 72.5%
- Number of spleen cells ([1]; 1 mg/kg/day po × 5, Table 9D): 1.7 ± 0.3 × 10^8
- Body weight 10 days after immunization ([1]; 1 mg/kg/day po × 10, Table 9E): 22.4 ± 0.5 g
- Cytotoxic T cell activity ([1]; 1 mg/kg/day po × 10, Table 9E): 269 ± 179 LU/spleen
- Cytotoxic T cell activity, suppression ([1]; 1 mg/kg/day po × 10, Table 9E): 90.3%
- Number of spleen cells ([1]; 1 mg/kg/day po × 10, Table 9E): 1.5 ± 0.3 × 10^8
- induction of allo-reactive cytotoxic T cells (in words) ([1]; 5 times intraperitoneal or oral): strongly suppresses the induction of allo-reactive cytotoxic T cells
- induction of allo-reactive cytotoxic T cells (in words), 10 oral administrations ([1]; 10 times oral, up to 0.03 mg/kg): significant suppressive activity up to the dose of 0.03 mg/kg
- cytotoxicity at 72 h ([2]; 0.1 μg/ml): 10.7%
- cytotoxicity at 72 h ([2]; 1 μg/ml): 12.2%
- cytotoxicity at 72 h ([2]; 10 μg/ml): 16.2%
- Absorbancy (MOLT4; 0.1 μg/ml): 1.031 ± 0.035
- Absorbancy (MOLT4; 1 μg/ml): 1.013 ± 0.013
- Absorbancy (MOLT4; 10 μg/ml): 0.967 ± 0.006
- cytotoxicity at 72 h [3]: 0%
- Absorbancy (U937; 0.1 μg/ml): 0.695 ± 0.032
- Absorbancy (U937; 1 μg/ml): 0.699 ± 0.044
- Absorbancy (U937; 10 μg/ml): 0.684 ± 0.038
- cytotoxicity at 72 h ([4]; 0.1 μg/ml): 2.2%
- cytotoxicity at 72 h ([4]; 1 μg/ml): 4%
- cytotoxicity at 72 h ([4]; 10 μg/ml): 4.7%
- Absorbancy (K562; 0.1 μg/ml): 1.111 ± 0.037
- Absorbancy (K562; 1 μg/ml): 1.090 ± 0.044
- Absorbancy (K562; 10 μg/ml): 1.083 ± 0.033
- cytotoxicity at 72 h ([5]; 0.1 μg/ml): 0%
- cytotoxicity at 72 h ([5]; 1 μg/ml): 5%
- cytotoxicity at 72 h ([5]; 10 μg/ml): 19.4%
